Results taken from paper PMC9666555, “Genuine selective caspase-2 inhibition with new irreversible small peptidomimetics” (Cell Death & Disease, 2022).
Non-standard residues stand in square brackets, D forms with d. Residues, ends and D or L forms follow the SMILES beside them. ξ: configuration not given here. *: point of attachment. ξTHIQ1CO(6-Me) = Cc1ccc2c(c1)CCNC2C(=O)O; X1 = O=C(O)CC(N*)C(=O)COc1c(F)cccc1F; Quinaldoyl = O=C(c1ccc2ccccc2n1)*

How the values were obtained:
[1] = test system: HeLa cells; assay: Vincristine-induced HeLa cell death (propidium iodide, flow cytometry); assay type: cell-based, human; details: indicated doses, 1 h pretreatment, 20 nM vincristine 44 h
Experimental: (§1) HeLa cells (obtained from ATCC) were cultured in Dulbecco’s Modified Eagle Medium (DMEM, High Glucose, GlutaMAX™, Pyruvate) supplemented with antibiotics and 10% fetal calf serum (FCS) (Gibco, Life Technologies) and maintained in T75 Flasks at 1 × 10^6 cells per flask. Twenty-four hours before treatments, HeLa cells were transferred to 6-well plates (8 × 10^4 cells/well). The lymphoblastoid cell line Molt4cl8 was a gift from Dr. Bernard Krust (Inserm, University Paris 5) and was cultured in RPMI 1640 Glutamax medium supplemented with Hepes, antibiotics, and 10% FCS. HEK293 cells were obtained from ATCC (CRL-1573) and cultured in DMEM with Glutamax and 25 mM glucose (Life Technologies) supplemented with 10% FCS and antibiotics. For cell death induction, the following agents were added to cell cultures: Vincristine (Sigma) and Panobistat (LBH589; Selleck). Cell death was analyzed using fluorescence microscopy (Axio-observer Z1, Zeiss; equipped with CCD camera CoolsnapHQ2, Ropert Scientific) and cytofluorometry (MACSQuant® VYB; Miltenyi Biotec, Bergisch Gladbach, Germany) after labeling with propidium iodide (1 µg/mL; 10 min; 37 °C; Life Technologies) and Hoechst 33342 (1 µg/mL; 5 min; RT; Sigma).
Fig. 2 q33 and h33 are protective against the cytocidal effect of Vincristine. a Vincristine induces HeLa cell death. Cells were incubated for 44 h at 37 °C with 20 nM Vincristine (VCR), then incubated with propidium iodide at 2 μg/mL for 10 min and analyzed by flow cytometry to quantify plasma membrane permeabilization. Histograms show fluorescence intensity detected by flow cytometry (one representative experiment) in the presence (VCR) or Absence (Co.) of Vincristine. % of propidium iodide-positive cells are indicated for both conditions. b Dose–response of Vincristine-induced cell death. HeLa cells were incubated and treated as in (a) with the indicated doses of Vincristine (VCR) and analyzed by flow cytometry. […] Representative fluorescence microscopy micrographs of cells treated for 44 h with 20 nM vincristine (VCR) or not (Co.) and stained with Hoechst 33342. Vincristine induces progressive nuclear changes with first condensed nuclei (arrows) and then apoptotic bodies (dashed arrow). d Broad-spectrum irreversible caspase inhibitors prevent vincristine-induced cell death. HeLa cells were pretreated for 1 hr with the indicated broad-spectrum irreversible caspases inhibitors (z-VAD(OMe)-fmk at 30 μM, Q-VD-OPh 30 μM, Emricasan 10 μM, or the negative control Q-VE-OPh 30 μM), then treated with vincristine as in panel (a), and analyzed by flow cytometry. Histograms show the mean ± SD of 3 independent experiments (***p value < 0.001). e Effect of the reversible Caspase-2 inhibitors q33 and h33 against vincristine-induced cell death. HeLa cells were pretreated for 1 h with the indicated doses of q33 or h33, then treated with vincristine as in panel a, and analyzed by flow cytometry. Histograms show the mean ± SD of three independent experiments (*p value < 0.1). TEXT PRINTED IN THE PICTURE: (a) VCR: 39,5 % DOUBTS OF THE COPYIST ABOUT THIS PICTURE: Panel a: the picture prints no measure beside "39,5 %" and "4.1%". I assigned 39,5 % to VCR only because it stands by the grey VCR peak. / Panel a: "4.1%" seems to belong to the untreated control (Co.). That is not a substance, so it is left out.
Fig. 5 LJ2 inhibits cell death induced by microtubule destabilization and hydroxamic acid-based deacetylase (HDAC) inhibition. a Effect of the irreversible Caspase-2 inhibitors LJ2 against vincristine-induced cell death. HeLa cells were pretreated for 1 h with the indicated doses of LJ2, Q-VD-OPh, or Q-LETD-OPh, then treated with vincristine (VCR) as in Fig. 2, then incubated with propidium iodide at 2 μg/mL for 10 min and analyzed by flow cytometry. Histogram data are mean ± SD (n = 3, *p value < 0.01). b Effect of Caspases-inhibitors against Panobistat (LBH589)-induced cell death. […]

[2] = test system: Molt4 lymphoid human cells; assay: Panobistat (LBH589)-induced cell death in Molt4 cells (propidium iodide, flow cytometry); assay type: cell-based; details: Molt4, 1 h pretreatment (30 µM or indicated doses), 25 nM LBH589 24 h
Experimental: as §1
Fig. 5 LJ2 inhibits cell death induced by microtubule destabilization and hydroxamic acid-based deacetylase (HDAC) inhibition. a Effect of the irreversible Caspase-2 inhibitors LJ2 against vincristine-induced cell death. HeLa cells were pretreated for 1 h with the indicated doses of LJ2, Q-VD-OPh, or Q-LETD-OPh, then treated with vincristine (VCR) as in Fig. 2, then incubated with propidium iodide at 2 μg/mL for 10 min and analyzed by flow cytometry. […] Molt4 lymphoid human cells where were pretreated for 1 h with 30 µM of LJ2, Q-VD-OPh, or Belnacasan (VX-765), then treated for 24 h with 25 nM of LBH589, then incubated with propidium iodide as in (a) and analyzed by flow cytometry. […] Molt4 cells were treated as in (b) with the indicated doses of LJ2 or Q-VD-OPh and analyzed by flow cytometry. […]

[3] = test system: cell lines or primary neurons in culture; assay: Toxicity of inhibitor added to cultured cells; assay type: cell-based; details: at least up to 100 µM; not shown
[4] = test system: Swiss mice hippocampal neurons; assay: Aβ oligomer-induced dendritic spine loss in hippocampal primary cultures; assay type: cell-based, mouse; details: 100 nM Aβ1-42 oligomers 6 h
Experimental: For the monoculture model (MBBT4 devices), 20 × 10^3 hippocampal neurons were seeded in each chamber. For the compartmentalized coculture model (neuronal diode in MBBT5 devices), 40 × 10^3 cortical cells and 15 × 10^3 hippocampal cells were seeded in each input chamber and output chamber, respectively. The culture medium was renewed every 5 days. Microfluidic chips were placed in Petri dishes containing 0.1% EDTA (Sigma) and incubated at 37 °C in a 5% CO2 atmosphere. In the neuronal diodes, cortical axons entered the microchannels and reached the hippocampi chamber in around 4–5 days. In both the monoculture and coculture systems, cells were cultured for 3 weeks to allow high dendrites and synapse density and intense electrical firing.
Cells were treated with caspase inhibitors and/or Aβ1–42 at 20 days in vitro. For the hippocampal monocultures, the culture medium was removed and replaced by fresh medium optionally containing 10 nM Aβ1–42 oligomers or monomers, with or without caspase inhibitors. After 6 h, cells were fixed, permeabilized, and subjected to immunolabelling. For cortico-hippocampal compartmentalized cocultures, the medium of the input chamber (cortical) was replaced by fresh medium optionally containing 100 nM Aβ1–42 oligomers or monomers, whereas the medium of the output (hippocampal) chamber was replaced by fresh medium optionally containing, or not, caspases inhibitors. […]
Immunostaining was performed directly in microfluidic chambers as described [38]. […] Images were analyzed using ImageJ software (NIH, Bethesda, MD, USA).
Synaptic disconnection was assessed as described [39] with slight modifications. Briefly, in hippocampal monocultures, synaptic disconnection was assessed through fluorescence microscopy by counting phalloidin clusters affixed to MAP2 and Bassoon. In cortico-hippocampal compartmentalized cocultures, synaptic disconnection was assessed by counting α-Synuclein presynaptic clusters affixed to MAP2-positive hippocampal dendrites. […] The images were similarly processed with ImageJ software before being used for quantification: the brightness/contrast of all control images were optimized manually to eliminate the background and to maximize the signal. The means of the minimum and maximum intensities were then calculated in the control condition and these settings were applied to all images. The brightness/contrast of all images was optimized manually to eliminate the background and maximize the intensity of the signal. α-synuclein/ MAP2 and Phalloidin/MAP2/Bassoon merges were then used for quantification. The number of spines was determined by counting individual clusters along ten dendritic regions (100 µm length each) in three independent experiments for every epitope. Only synapses detected on or near the neurites were included for analysis.

[5] = molecular target: human recombinant Caspase-6 (Homo sapiens, UniProt P55212); assay: Additional enzyme kinetics, Caspase-6; details: concentrations up to 10 µM
Chain of human recombinant Caspase-6 (P55212 24-179 limits assumed): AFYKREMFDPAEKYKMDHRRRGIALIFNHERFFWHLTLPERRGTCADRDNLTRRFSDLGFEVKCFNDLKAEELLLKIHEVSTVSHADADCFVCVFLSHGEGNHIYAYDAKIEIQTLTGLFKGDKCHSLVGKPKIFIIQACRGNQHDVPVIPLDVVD
Chain of human recombinant Caspase-6 (P55212 194-293 limits assumed): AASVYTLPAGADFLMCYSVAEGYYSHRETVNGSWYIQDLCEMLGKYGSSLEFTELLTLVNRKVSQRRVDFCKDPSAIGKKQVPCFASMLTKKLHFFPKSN
Experimental: The human active recombinant Caspase-3 (#707-C3) was purchased from R&D Systems (Minneapolis, USA). […] Stock solutions were stored at −80 °C. […] Caspase inhibitors were solubilized in DMSO at 10 mM and stored at −80 °C.
Initial velocity (V0) was determined from the linear portion of the progress curve. The composition of the activity buffer was: 20 mM HEPES, pH 7.4; 0.1% CHAPS, 5 mM DTT, 2 mM EDTA; 800 mM sodium succinate for Caspase-2 (0.2 nM) with 25 µM of Ac-VDVAD-7-amino-3-methylcoumarin (AMC) and 20 mM HEPES, pH 7.4; 0.1% CHAPS, 5 mM DTT, 2 mM EDTA; supplemented with 1 mg/mL of stabilizing agent bovine serum albumin (BSA) for Caspase-3 (0.1 nM) with 10 μM of Ac-DEVD-AMC. Compounds (0.001–100 µM) were tested in duplicate for each inhibitor concentration to detect their inhibitory potential. Enzymes and compounds were incubated for 30 min before initiating enzymatic reaction by adding substrate. Initial rates determined in control experiments (V0) were considered as 100% of the caspase activity; initial rates that were below 100% in the presence of tested compound (Vi) were considered as inhibition. The inhibitory activity of compounds was expressed as IC50 (Inhibitor concentration giving 50% inhibition). The values of IC50 were calculated by fitting the experimental data using Mars data Analysis 2.0 and KaleidaGraph software.1 %Inhibition=1001−Vi/V0=100I0/IC50+I0

[6] = test system: Casp2-S1P-SREBP2 activation pathway in HEK 293 cells; assay: Casp2-dependent S1P cleavage and SREBP2 activation in transfected HEK 293 cells (WB); details: 10 µM, 16 h
Experimental: To test SREBP processing, HEK 293 (ATCC® CRL-1573) cells were plated at a density of 0.5 × 10^5 per well (6-well plates). The next day, 1 μg of each cDNAs were transfected using lipofectamine 3000 (Thermo Fisher Scientific, MA) according to the manufacturer’s instruction. cDNAs used were empty vector (EV), Casp2-HA, PIDD-Flag, RAIDD-His, Myc-S1P, and V5-SREBP2. After 4 h, cells were incubated in DMEM/F12 medium supplemented with indicated Casp2 inhibitors (10 μM) for 16 h. Whole-cell lysates were prepared in lysate buffer (150 mM Tris-HCl, pH 7.4, 10% sodium-deoxycholate, 100 mM NaCl, 100 mM EDTA, 100 mM PMSF, 200 mM NaF, 100 mM Na3VO4, and a mixture of protease inhibitors). […] Equal quantities of proteins were subjected to immunoblot (WB) analysis with anti-Flag (#F7425 Sigma-Aldrich), anti-HA (#1867431, Roche), anti-Casp2 (#ALX-804-356, 11B4, Enzo Life Sciences), anti-V5 monoclonal antibody (#13202, Cell Signaling Technology), anti-Casp3 (#9661, #9662, #9664, Cell Signaling Technologies), and anti-HSP90 (#sc-101494, Santa Cruz Technologies).
HEK 293 cells were transfected with indicated plasmids in order to overexpress SREBP2, S1P, RAIDD, PIDD1, and Casp-2. […] HEK 293 cells were transfected with the indicated plasmids. […] Then, whole cell extracts (WCL) were prepared and subjected to WB analysis to detect Casp2 (through HA tag), RAIDD (through 6HIS tag), and PIDD1, PIDD1-C, PIDD1-CC (through Flag tag).

| Compound | effect against vincristine-induced cell death [1] | effect against Panobistat (LBH589)-induced cell death [2] | toxicity [3] | prevention of dendritic spine loss induced by oligomeric Aβ ([4]; pretreatment at 0.1 µM) | prevention of dendritic spine loss induced by oligomeric Aβ ([4]; pretreatment at 1 µM) | prevention of dendritic spine loss induced by oligomeric Aβ ([4]; pretreatment at 10 µM) | effect on Caspase-6 [5] | S1P cleavage [6] | SREBP2 activation [6] | impact on RAIDD, PIDD1, and Casp2 expression [6] |
| --- | --- | --- | --- | --- | --- | --- | --- | --- | --- | --- |
| Cc1ccc2c(c1)CCN(C(=O)[C@@H](NC(=O)[C@H](CC(=O)O)NC(=O)[C@@H](NC(=O)c1ccc3ccccc3n1)C(C)C)C(C)C)C2C(=O)NC(CC(=O)O)C(=O)COc1c(F)cccc1F (stereo partly drawn) [LJ2, Quinolin-2-carbonyl-VDV-(methyl-isoquinolyl)-D-CH2-O(2,6F2)Ph] (Quinaldoyl-VDV[ξTHIQ1CO(6-Me)]-X1) | significantly prevented Vincristin-induced cell death in a dose-dependent manner | dose-dependent inhibition of cell death | devoid of any toxicity |  |  |  |  |  |  |  |
| CC(C)[C@H](NC(=O)c1ccc2ccccc2n1)C(=O)N[C@@H](CC(=O)O)C(=O)N[C@H](C(=O)N1CC[C@H](CC(C)(C)C)[C@@H]1C(=O)NC(CC(=O)O)C(=O)COc1c(F)cccc1F)C(C)C (stereo partly shown) [LJ3a] |  |  |  | 59.63% | 89.29% | 97.5% | very limited or no effect | abolished | abolished | no significant impact |
